Laboratory results taken from patent US9175003B2, “Substituted azoanthracene derivatives and intermediates for preparation thereof” (TransTech Pharma, LLC, priority 2009, dated 2015).

molecular target: human GLP-1 receptor (Homo sapiens (Human), UniProt P43220); settings: read-out: Mean EC50; cAMP, HTRF detection, 30 min at 37° C., HEK-293 cells expressing cloned human GLP-1 receptor
Sequence (P43220 24-463): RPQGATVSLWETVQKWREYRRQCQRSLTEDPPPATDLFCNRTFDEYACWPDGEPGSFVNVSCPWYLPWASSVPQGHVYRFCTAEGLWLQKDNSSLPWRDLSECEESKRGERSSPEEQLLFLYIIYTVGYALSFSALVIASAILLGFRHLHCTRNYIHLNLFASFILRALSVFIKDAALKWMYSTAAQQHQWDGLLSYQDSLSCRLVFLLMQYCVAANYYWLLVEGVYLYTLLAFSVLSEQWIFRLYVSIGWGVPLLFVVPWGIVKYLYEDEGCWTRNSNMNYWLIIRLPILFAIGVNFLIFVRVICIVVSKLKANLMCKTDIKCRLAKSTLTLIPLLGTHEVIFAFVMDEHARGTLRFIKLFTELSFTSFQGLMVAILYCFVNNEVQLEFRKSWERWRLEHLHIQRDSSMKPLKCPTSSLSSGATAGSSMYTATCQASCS

In order of falling EC50:
1. Cc1nccc(-c2ccc(C[C@H](NC(=O)[C@@H]3Cc4cc5c(cc4CN3C(=O)Nc3cnccn3)O[C@@H](c3ccc(OCc4ccc(Cl)c(Cl)c4)cc3)CO5)C(=O)O)cc2)c1C [Example 257, (S)-2-{[(3S,8S)-3-[4-(3,4-Dichloro-benzyloxy)-phenyl]-7-(pyrazin-2-ylcarbamoyl)-2,3,6,7,8,9-hexahydro-[1,4]dioxino[2,3-g]isoquinoline-8-carbonyl]-amino}-3-[4-(2,3-dimethyl-pyridin-4-yl)-phenyl]-propionic acid]  348 nM
2. Cc1nccc(-c2ccc(C[C@H](NC(=O)[C@@H]3Cc4cc5c(cc4CN3C(=O)Nc3cc(F)cc(F)c3)O[C@@H](c3ccc(OCc4ccc(Cl)c(Cl)c4)cc3)CO5)C(=O)O)cc2)c1C [Example 255, (S)-2-{[(3S,8S)-3-[4-(3,4-Dichloro-benzyloxy)-phenyl]-7-(3,5-difluoro-phenylcarbamoyl)-2,3,6,7,8,9-hexahydro-[1,4]dioxino[2,3-g]isoquinoline-8-carbonyl]-amino}-3-[4-(2,3-dimethyl-pyridin-4-yl)-phenyl]-propionic acid]  317 nM
3. Cc1nccc(-c2ccc(C[C@H](NC(=O)[C@@H]3Cc4cc5c(cc4CN3C(=O)Nc3ccccn3)O[C@@H](c3ccc(OCc4ccc(Cl)c(Cl)c4)cc3)CO5)C(=O)O)cc2)c1C [Example 258, (S)-2-{[(3S,8S)-3-[4-(3,4-dichloro-benzyloxy)-phenyl]-7-(pyridin-2-ylcarbamoyl)-2,3,6,7,8,9-hexahydro-[1,4]dioxino[2,3-g]isoquinoline-8-carbonyl]-amino}-3-[4-(2,3-dimethyl-pyridin-4-yl)-phenyl]-propionic acid]  251 nM
4. Cc1nccc(-c2ccc(C[C@H](NC(=O)[C@@H]3Cc4cc5c(cc4CN3C(=O)NC3CCCC3)O[C@@H](c3ccc(OCc4ccc(Cl)c(Cl)c4)cc3)CO5)C(=O)O)cc2)c1C [Example 248, (S)-2-({(3S,8S)-7-Cyclopentylcarbamoyl-3-[4-(3,4-dichloro-benzyloxy)-phenyl]-2,3,6,7,8,9-hexahydro-[1,4]dioxino[2,3-g]isoquinoline-8-carbonyl}-amino)-3-[4-(2,3-dimethyl-pyridin-4-yl)-phenyl]-propionic acid]  187 nM
5. Cc1ncoc1C(=O)N1Cc2cc3c(cc2C[C@H]1C(=O)N[C@@H](Cc1ccc(Oc2ccnc(C)c2C)cc1)C(=O)O)OC[C@H](c1ccc(OCc2ccc(Cl)c(Cl)c2)cc1)O3 [Example 263, (S)-2-{[(3S,8S)-3-[4-(3,4-Dichloro-benzyloxy)-phenyl]-7-(4-methyl-oxazole-5-carbonyl)-2,3,6,7,8,9-hexahydro-[1,4]dioxino[2,3-g]isoquinoline-8-carbonyl]-amino}-3-[4-(2,3-dimethyl-pyridin-4-yloxy)-phenyl]-propionic acid]  187 nM
6. Cc1nccc(-c2ccc(C[C@H](NC(=O)[C@@H]3Cc4cc5c(cc4CN3C(=O)Nc3ccc(F)c(F)c3)O[C@@H](c3ccc(OCc4ccc(Cl)c(Cl)c4)cc3)CO5)C(=O)O)cc2)c1C [Example 254, (S)-2-{[(3S,8S)-3-[4-(3,4-Dichloro-benzyloxy)-phenyl]-7-(3,4-difluoro-phenylcarbamoyl)-2,3,6,7,8,9-hexahydro-[1,4]dioxino[2,3-g]isoquinoline-8-carbonyl]-amino}-3-[4-(2,3-dimethyl-pyridin-4-yl)-phenyl]-propionic acid]  186 nM
7. Cc1nccc(-c2ccc(C[C@H](NC(=O)[C@@H]3Cc4cc5c(cc4CN3C(=O)NC(C)C)O[C@@H](c3ccc(OCc4ccc(Cl)c(Cl)c4)cc3)CO5)C(=O)O)cc2)c1C [Example 250, (S)-2-({(3S,8S)-3-[4-(3,4-Dichloro-benzyloxy)-phenyl]-7-isopropylcarbamoyl-2,3,6,7,8,9-hexahydro-[1,4]dioxino[2,3-g]isoquinoline-8-carbonyl}-amino)-3-[4-(2,3-dimethyl-pyridin-4-yl)-phenyl]-propionic acid]  171 nM
8. Cc1nccc(-c2ccc(C[C@H](NC(=O)[C@@H]3Cc4cc5c(cc4CN3C(=O)NC(C)(C)C)O[C@@H](c3ccc(OCc4ccc(Cl)c(Cl)c4)cc3)CO5)C(=O)O)cc2)c1C [Example 251, (S)-2-({(3S,8S)-7-tert-Butylcarbamoyl-3-[4-(3,4-dichloro-benzyloxy)-phenyl]-2,3,6,7,8,9-hexahydro-[1,4]dioxino[2,3-g]isoquinoline-8-carbonyl}-amino)-3-[4-(2,3-dimethyl-pyridin-4-yl)-phenyl]-propionic acid]  144 nM
9. Cc1nccc(-c2ccc(C[C@H](NC(=O)[C@@H]3Cc4cc5c(cc4CN3C(=O)c3cccc(O)c3)O[C@@H](c3ccc(OCc4ccc(Cl)c(Cl)c4)cc3)CO5)C(=O)O)cc2)c1C [Example 277, (S)-2-{[(3S,8S)-3-[4-(3,4-Dichloro-benzyloxy)-phenyl]-7-(3-hydroxy-benzoyl)-2,3,6,7,8,9-hexahydro-[1,4]dioxino[2,3-g]isoquinoline-8-carbonyl]-amino}-3-[4-(2,3-dimethyl-pyridin-4-yl)-phenyl]-propionic acid]  143 nM
10. Cc1cc(C(=O)N2Cc3cc4c(cc3C[C@H]2C(=O)N[C@@H](Cc2ccc(-c3ccnc(C)c3C)cc2)C(=O)O)OC[C@H](c2ccc(OCc3ccc(Cl)c(Cl)c3)cc2)O4)n(C)n1 [Example 270, (S)-2-{[(3S,8S)-3-[4-(3,4-Dichloro-benzyloxy)-phenyl]-7-(2,5-dimethyl-2H-pyrazole-3-carbonyl)-2,3,6,7,8,9-hexahydro-[1,4]dioxino[2,3-g]isoquinoline-8-carbonyl]-amino}-3-[4-(2,3-dimethyl-pyridin-4-yl)-phenyl]-propionoc acid]  142 nM
11. Cc1cc(C(=O)N2Cc3cc4c(cc3C[C@H]2C(=O)N[C@@H](Cc2ccc(Oc3ccnc(C)c3C)cc2)C(=O)O)OC[C@H](c2ccc(OCc3ccc(Cl)c(Cl)c3)cc2)O4)n(C)n1 [Example 266, (S)-2-{[(3S,8S)-3-[4-(3,4-Dichloro-benzyloxy)-phenyl]-7-(2,5-dimethyl-2H-pyrazole-3-carbonyl)-2,3,6,7,8,9-hexahydro-[1,4]dioxino[2,3-g]isoquinoline-8-carbonyl]-amino}-3-[4-(2,3-dimethyl-pyridin-4-yloxy)-phenyl]-propionic acid]  132 nM
12. Cc1cc(C(=O)N2Cc3cc4c(cc3C[C@H]2C(=O)N[C@@H](Cc2ccc(-c3ccnc(C)c3C)cc2)C(=O)O)OC[C@H](c2ccc(OCc3ccc(Cl)c(Cl)c3)cc2)O4)no1 [Example 271, (S)-2-{[(3S,8S)-3-[4-(3,4-Dichloro-benzyloxy)-phenyl]-7-(5-methyl-isoxazole-3-carbonyl)-2,3,6,7,8,9-hexahydro-[1,4]dioxino[2,3-g]isoquinoline-8-carbonyl]-amino}-3-[4-(2,3-dimethyl-pyridin-4-yl)-phenyl]-propionic acid]  102 nM
13. Cc1nccc(-c2ccc(C[C@H](NC(=O)[C@@H]3Cc4cc5c(cc4CN3C(=O)NC3CCCCC3)O[C@@H](c3ccc(OCc4ccc(Cl)c(Cl)c4)cc3)CO5)C(=O)O)cc2)c1C [Example 252, (S)-2-({(3S,8S)-7-Cyclohexylcarbamoyl-3-[4-(3,4-dichloro-benzyloxy)-phenyl]-2,3,6,7,8,9-hexahydro-[1,4]dioxino[2,3-g]isoquinoline-8-carbonyl}-amino)-3-[4-(2,3-dimethyl-pyridin-4-yl)-phenyl]-propionic acid]  99 nM
14. Cc1nc(C)c(C(=O)N2Cc3cc4c(cc3C[C@H]2C(=O)N[C@@H](Cc2ccc(Oc3ccnc(C)c3C)cc2)C(=O)O)OC[C@H](c2ccc(OCc3ccc(Cl)c(Cl)c3)cc2)O4)o1 [Example 265, (S)-2-{[(3S,8S)-3-[4-(3,4-Dichloro-benzyloxy)-phenyl]-7-(2,4-dimethyl-oxazole-5-carbonyl)-2,3,6,7,8,9-hexahydro-[1,4]dioxino[2,3-g]isoquinoline-8-carbonyl]-amino}-3-[4-(2,3-dimethyl-pyridin-4-yloxy)-phenyl]-propionic acid]  95 nM
15. Cc1cccc(NC(=O)N2Cc3cc4c(cc3C[C@H]2C(=O)N[C@@H](Cc2ccc(-c3ccnc(C)c3C)cc2)C(=O)O)OC[C@H](c2ccc(OCc3ccc(Cl)c(Cl)c3)cc2)O4)c1 [Example 253, (S)-2-({(3S,8S)-3-[4-(3,4-Dichloro-benzyloxy)-phenyl]-7-m-tolylcarbamoyl-2,3,6,7,8,9-hexahydro-[1,4]dioxino[2,3-g]isoquinoline-8-carbonyl}-amino)-3-[4-(2,3-dimethyl-pyridin-4-yl)-phenyl]-propionic acid]  85 nM
16. Cc1nccc(-c2ccc(C[C@H](NC(=O)[C@@H]3Cc4cc5c(cc4CN3C(=O)c3cc(F)cc(F)c3)O[C@@H](c3ccc(OCc4ccc(Cl)c(Cl)c4)cc3)CO5)C(=O)O)cc2)c1C [Example 278, (S)-2-{[(3S,8S)-3-[4-(3,4-Dichloro-benzyloxy)-phenyl]-7-(3,5-difluoro-benzoyl)-2,3,6,7,8,9-hexahydro-[1,4]dioxino[2,3-g]isoquinoline-8-carbonyl]-amino}-3-[4-(2,3-dimethyl-pyridin-4-yl)-phenyl]-propionic acid]  45 nM
17. Cc1nccc(-c2ccc(C[C@H](NC(=O)[C@@H]3Cc4cc5c(cc4CN3C(=O)[C@H]3CCCN3C(=O)OC(C)(C)C)O[C@@H](c3ccc(OCc4ccc(Cl)c(Cl)c4)cc3)CO5)C(=O)O)cc2)c1C [Example 279, (R)-2-{(3S,8S)-8-{(S)-1-Carboxy-2-[4-(2,3-dimethyl-pyridin-4-yl)-phenyl]-ethylcarbamoyl}-3-[4-(3,4-dichloro-benzyloxy)-phenyl]-2,3,8,9-tetrahydro-6H-[1,4]dioxino[2,3-g]isoquinoline-7-carbonyl}-pyrrolidine-1-carboxylic acid tert-butyl ester]  15 nM
18. Cc1nccc(-c2ccc(C[C@H](NC(=O)[C@@H]3Cc4cc5c(cc4CN3C(=O)C3CCN(C(=O)OC(C)(C)C)CC3)O[C@@H](c3ccc(OCc4ccc(Cl)c(Cl)c4)cc3)CO5)C(=O)O)cc2)c1C [Example 274, 4-{(3S,8S)-8-{(S)-1-Carboxy-2-[4-(2,3-dimethyl-pyridin-4-yl)-phenyl]-ethylcarbamoyl}-3-[4-(3,4-dichloro-benzyloxy)-phenyl]-2,3,8,9-tetrahydro-6H-[1,4]dioxino[2,3-g]isoquinoline-7-carbonyl}-piperidine-1-carboxyl is acid tert-butyl ester]  2 nM
